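Here, GI50 denotes the concentration required for 50% inhibition of growth. At the TGI there is no net growth.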
Columns and labels:
Experiment in all cases: growth of human tumour cells (NCI), 384-well format
A498 renal = system: A498 renal
TK-10 renal = system: TK-10 renal
HOP-92 NSCLC = system: HOP-92 NSCLC
NCI-H460 NSCLC = system: NCI-H460 NSCLC
SNB-19 CNS = system: SNB-19 CNS
UO-31 renal = system: UO-31 renal
A549 NSCLC = system: A549 NSCLC
HT29 colon = system: HT29 colon
M14 melanoma = system: M14 melanoma
DU-145 prostate = system: DU-145 prostate
RXF 393 renal = system: RXF 393 renal
IGROV1 ovarian = system: IGROV1 ovarian
EKVX NSCLC = system: EKVX NSCLC
SK-MEL-5 melanoma = system: SK-MEL-5 melanoma
CAKI-1 renal = system: CAKI-1 renal
OVCAR-3 ovarian = system: OVCAR-3 ovarian
NCI-H522 lung = system: NCI-H522 lung
786-0 renal = system: 786-0 renal
MALME-3M melanoma = system: MALME-3M melanoma
NCI/ADR-RES ovarian = system: NCI/ADR-RES ovarian
SW-620 colon = system: SW-620 colon
LOX IMVI melanoma = system: LOX IMVI melanoma
SK-OV-3 ovarian = system: SK-OV-3 ovarian
PC-3 prostate = system: PC-3 prostate
RPMI-8226 leukemia = system: RPMI-8226 leukemia
NCI-H322M lung = system: NCI-H322M lung
MOLT-4 leukemia = system: MOLT-4 leukemia
UACC-257 melanoma = system: UACC-257 melanoma
K-562 leukemia = system: K-562 leukemia

`C=CC(=O)Nc1cccc(Oc2nc(Nc3ccc(N4CCN(C)CC4)cc3OC)ncc2Cl)c1` showed a GI50 (A498 renal) of 517 nM, a TGI (A498 renal) of 1890 nM and a GI50 (TK-10 renal) of 788 nM. It also gave a TGI (TK-10 renal) of 2060 nM, a GI50 (HOP-92 NSCLC) of 1100 nM and a TGI (HOP-92 NSCLC) of 2340 nM. It also gave a GI50 (NCI-H460 NSCLC) of 1640 nM, a TGI (NCI-H460 NSCLC) of 3020 nM and a GI50 (SNB-19 CNS) of 2600 nM. It also gave a TGI (SNB-19 CNS) of 8340 nM, a GI50 (UO-31 renal) of 1350 nM and a TGI (UO-31 renal) of 2660 nM. It also gave a GI50 (A549 NSCLC) of 1230 nM, a TGI (A549 NSCLC) of 2480 nM and a GI50 (HT29 colon) of 1650 nM. It also gave a TGI (HT29 colon) of 3020 nM, a GI50 (M14 melanoma) of 1770 nM and a TGI (M14 melanoma) of 3160 nM. It also gave a GI50 (DU-145 prostate) of 1320 nM, a TGI (DU-145 prostate) of 3080 nM and a GI50 (RXF 393 renal) of 1290 nM. For the same compound, the TGI (RXF 393 renal) was 2570 nM, the GI50 (IGROV1 ovarian) was 754 nM and the TGI (IGROV1 ovarian) was 2040 nM. For the same compound, the GI50 (EKVX NSCLC) was 374 nM, the TGI (EKVX NSCLC) was 1650 nM and the GI50 (SK-MEL-5 melanoma) was 1570 nM. It also gave a TGI (SK-MEL-5 melanoma) of 2920 nM, a GI50 (CAKI-1 renal) of 765 nM and a TGI (CAKI-1 renal) of 2050 nM. The GI50 (OVCAR-3 ovarian) was 1250 nM, the TGI (OVCAR-3 ovarian) was 2520 nM and the GI50 (NCI-H522 lung) was 257 nM. It also gave a TGI (NCI-H522 lung) of 1250 nM, a GI50 ([…]-0 renal) of 1180 nM and a TGI (786-0 renal) of 2420 nM. For the same compound, the GI50 (MALME-3M melanoma) was 1530 nM, the TGI (MALME-3M melanoma) was 2860 nM and the GI50 (NCI/ADR-RES ovarian) was 1510 nM. It also gave a TGI (NCI/ADR-RES ovarian) of 2850 nM, a GI50 (SW-620 colon) of 1720 nM and a TGI (SW-620 colon) of 3110 nM. For the same compound, the GI50 (LOX IMVI melanoma) was 1660 nM, the TGI (LOX IMVI melanoma) was 3030 nM and the GI50 (SK-OV-3 ovarian) was 1040 nM. For the same compound, the TGI (SK-OV-3 ovarian) was 2230 nM, the GI50 (PC-3 prostate) was 1700 nM and the TGI (PC-3 prostate) was 3140 nM. It also gave a GI50 (RPMI-8226 leukemia) of 1160 nM, a TGI (RPMI-8226 leukemia) of 2380 nM and a GI50 (NCI-H322M lung) of 354 nM. The TGI (NCI-H322M lung) was 1670 nM, the GI50 (MOLT-4 leukemia) was 1500 nM and the TGI (MOLT-4 leukemia) was 2820 nM. For the same compound, the GI50 (UACC-257 melanoma) was 1210 nM, the TGI (UACC-257 melanoma) was 2460 nM and the GI50 (K-562 leukemia) was 1630 nM. The TGI (K-562 leukemia) was 3000 nM.

Reference: PubChem BioAssay (NCI)
